“Also recorded” adds a separate entry of the source.
What was measured:
[1] = Variable temperature FTIR and 2D IR, tautomerism in aqueous solution; type: physicochemical; conditions: deuterated 0.5 M phosphate buffer pD 7.9, 10-80° C.
Experimental: For both 1D FTIR and 2D IR experiments, the H/D exchanged KP1212 was dissolved at a concentration of 20 mg/ml (88 mM) in 0.5 M phosphate buffer pD (pH reading in D2O) 7.9. About 25 μl of sample solution was sandwiched between two CaF2 windows separated by a 50 μm TEFLON spacer. Variable-temperature FTIR spectra were collected using Nicolet 380 FTIR spectrometer at 1.0 cm^−1 resolution with 16 scans per spectrum. Spectra for both the sample and the D2O were collected with the same procedure and the solvent spectra were subtracted from the sample spectra.
Absorptive 2D IR spectra were collected using a 2D IR spectrometer as described in detail previously (Chung, H. S., Khalil, M., Smith, A. W. & Tokmakoff, A. Transient two-dimensional IR spectrometer for probing nanosecond temperature-jump kinetics. Rev. Sci. Instrum. 78, 063101 (2007)). The relative polarizations of the pulses were set to be perpendicular (ZZYY). The waiting time (τ2) between the first two pulses and the third pulse was fixed at 150 fs. The coherence time between the first and the second pulse was scanned in 4 fs steps from −60 fs to 2.8 ps and 2.0 ps for rephasing and non-rephasing spectra, respectively. […]
2D IR spectroscopy is analogous to 2D NMR: sequences of ultrafast IR pulses are employed to excite molecular vibrations, and the energy flow from one vibration to others is then detected. […]

[2] = molecular target: PfuTurbo DNA polymerase (Pyrococcus furiosus, UniProt P61875); assay: In vitro polymerase extension assay on KP1212-containing M13 template; type: biochemical
Experimental: (A) A 16mer oligonucleotide containing KP1212 (SEQ ID NO: 1) (or controls) at a specific site was chemically synthesized and ligated into the genome of an M13 bacteriophage. (B) The KP1212-containing M13 genomes were replicated within E. coli cells. Progeny were analyzed to characterize the amount and the type of nucleic acid base placed opposite the lesion during replication. The relative reduction in lesion vs. non-lesion competitor progeny formation was used as an estimate of the extent to which KP1212 and m3C inhibited DNA replication. (C) The KP1212-containing M13 genomes were used as templates for in vitro polymerase extension assays, carried out at 72° C., using the high-fidelity DNA polymerase PfuTurbo. (D) Bypass efficiency (CRAB assay) of KP1212, m3C, C in HK81 (AlkB^+) and HK82 (AlkB^−) E. coli cells. m3C and undamaged C were used as controls. Genomes were made and normalized to one another before being combined with a competitor genome. Each mixture was transformed into the corresponding cell strain in triplicate, and bypass efficiency was calculated by using the undamaged C genome as 100% bypass, with error bars representing one standard deviation. (E) Mutagenesis (REAP assay) of KP1212, m3C, and C in HK82 (AlkB^−) E. coli cells. m3C, undamaged C, and an approximately equimolar mixture of genomes carrying unmodified G/A/T/C bases at the site of inquiry (denoted as GATC) were used as controls. Genomes containing the lesions of interest were transfected into E. coli in triplicate.
The single-stranded, lesion-containing genomes, constructed above were also used as templates for in vitro polymerase extension assays. Fifty fmol of each genome were mixed with 50 pmol of REAP forward and reverse primers, 1.25 U Pfu Turbo DNA polymerase and 5 nmol of each dNTP in 1×Pfu Turbo buffer. […] Subsequently, 29 PCR cycles amplified the newly formed strand and generated a product that was then analyzed using the exact downstream steps of the REAP assay described above. […]

[3] = Phase I and II clinical trials; cited from earlier work
[4] = in vitro, 72° C., PfuTurbo DNA polymerase (FIG. 18C)

Sequence of PfuTurbo DNA polymerase (P61875 whole entry): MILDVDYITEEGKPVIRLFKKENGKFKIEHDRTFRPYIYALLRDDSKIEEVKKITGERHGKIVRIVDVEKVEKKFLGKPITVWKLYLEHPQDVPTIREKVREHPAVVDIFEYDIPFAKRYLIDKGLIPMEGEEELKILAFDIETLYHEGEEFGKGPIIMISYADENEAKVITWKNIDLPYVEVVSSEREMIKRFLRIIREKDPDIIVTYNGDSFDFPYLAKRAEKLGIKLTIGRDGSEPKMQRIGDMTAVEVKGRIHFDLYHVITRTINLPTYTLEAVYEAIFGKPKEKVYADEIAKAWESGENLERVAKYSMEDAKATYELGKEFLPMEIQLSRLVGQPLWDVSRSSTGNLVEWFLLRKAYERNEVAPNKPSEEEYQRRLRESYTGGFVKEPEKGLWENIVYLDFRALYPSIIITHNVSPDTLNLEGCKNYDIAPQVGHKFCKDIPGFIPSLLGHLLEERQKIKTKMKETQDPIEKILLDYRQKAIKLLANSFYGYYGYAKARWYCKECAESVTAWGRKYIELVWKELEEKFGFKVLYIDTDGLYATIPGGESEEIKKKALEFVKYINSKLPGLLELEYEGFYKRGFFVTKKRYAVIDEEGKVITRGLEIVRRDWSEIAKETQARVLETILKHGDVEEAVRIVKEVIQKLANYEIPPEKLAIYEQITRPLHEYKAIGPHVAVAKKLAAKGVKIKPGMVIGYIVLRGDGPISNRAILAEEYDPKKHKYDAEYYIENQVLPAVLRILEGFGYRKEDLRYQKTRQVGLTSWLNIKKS

For `NC1=NC(=O)N([C@H]2C[C@H](O)[C@@H](CO)O2)CN1` [KP1212, 5-aza-5,6-dihydro-2′-deoxycytidine], which “tautomerism by FTIR and 2D IR” value [1] is on record?
Its value is “multiple tautomeric forms; also recorded: different tautomeric forms”.

And the “pH dependence of mispairing frequency” value ([2]; in vitro polymerase extension reaction, pH 7.0 and 7.8, preliminary studies)?
Its value is “did not vary significantly”.

And the “A placed opposite KP1212” value [2, 4]?
The value was 9.5 % of the time.

What about the “G placed opposite KP1212” value [2, 4] of the same compound?
Its value is 90.5 % of the time.

And the “safety in clinical trials” value [3]?
The value was “safe”.

— patent US9283242B2, “Uses of dihydro bases” (priority 2013, dated 2016)
